The record followed here is PMC9738107, “Targeting of the ELR+CXCL/CXCR1/2 Pathway Is a Relevant Strategy for the Treatment of Paediatric Medulloblastomas” (Cells, 2022).

Holding throughout (assay type): cell-based, human
Assay [1] concerns ERK and AKT phosphorylation in ONS-76 cells. Kind of assay: Immunoblotting of p-ERK/p-AKT. To be noted: ONS-76, 1 or 2.5 µM, 2 h or 24 h. As to the method:
(§1) Figure 5 C29 inhibits signalling pathway that stimulates in cell proliferation and survival. (A–C). Daoy (A), HD-MB03 (B), and ONS-76 (C) cells were treated with C29 (1 or 2.5 μM) for 2 h (A–C) or 24 h (C), n = 3. The expression of p- ERK and p-AKT, relative to ERK and AKT, (respectively) was used to describe the relative activation of the pathways. ARD1 and HSP90 were used as loading controls. Statistics were performed using Student t-test for two comparisons only or ANOVA test for multiple comparisons. * p < 0.05, ** p < 0.01. […]
(§2) Protein extraction and immunoblotting
(§3) Cells were cultured to sub confluency and lysed in 60 mM Tris‐Cl pH 6∙8, 2% SDS, 10% glycerol, 5% β‐mercapto‐ethanol, 0∙01% bromophenol blue).
(§4) Lysates were sonicated for 25 seconds, and protein amount was determined by the Pierce™ BCA Protein Assay Kit assay (Thermo Fisher). Sample proteins were reduced by heating at 95 °C for 5 min. 30 μg of proteins were separated on 10% SDS‐polyacrylamide gels and transferred on PVDF membranes in Tris‐Glycine buffer (25 mM Tris, 192 mM glycine, pH 8∙3) + 20% ethanol (v:v). Membranes were blocked with 3% BSA, at room tem‐ perature for 1 h, then immunoblotted overnight with primary antibodies diluted in 3% BSA, at 4 °C. The following primary antibodies were used: AKT (CST, #9272S), phospho‐ […]
(§5) ARD1 (homemade polyclonal rabbit antibody). Membranes were incubated with HRP‐ conjugated secondary antibodies anti‐rabbit IgG 1/5000e (Promega), at room temperature, for 1h30. After washing, the Advansta WesternBright Quantum HRP substrate (Diagom‐ ics, Blagnac, France) was used as detection reagent.
Background: A western blot detects proteins with antibodies after separation by electrophoresis.

Assay [2] concerns ERK phosphorylation in Daoy cells. Kind of assay: Immunoblotting of p-ERK/p-AKT. To be noted: 1 or 2.5 µM, 2 h. The protocol:
as §1, §2, §3, §4, §5

The test system of assay [3] is ERK phosphorylation in HD-MB03 cells. Description: Immunoblotting of p-ERK/p-AKT. To be noted: HD-MB03, 1 or 2.5 µM, 2 h. As to the method: as §1, §2, §3, §4, §5
Assay [4] relates to HD-MB03 spheroids expressing DsRed on mouse cerebellar slices. Description: Ex vivo cerebellar organotypic model. To be noted: 5 µM C29 daily for five days, after fourteen days. From the text:
(§6) To establish ex vivo cultures of cerebellar tissues, mouse cerebellums were surgically harvested and sectioned into 250 μm thick slices using a vibrating blade microtome (RRID:SCR_016495). To comply with the 3-R rule, we used supernumerary mice (aged 12 weeks) that were destined to be sacrificed. A spheroid formed from DsRed-expressing MB cells was then grafted onto each cerebellum slice. These organotypic co-culture models were placed on inserts and maintained as previously described. After daily exposure to C29 or DMSO for 5 consecutive days, tumour growth and invasion within the cerebellum slices were analysed over time using the JuLI™ Stage imaging system and the PHERAstar® FS multiplate reader (λex 580 nm/λem 620 nm–fluorescence signal acquisition with a 15 × 15 matrix scanning mode). […]
(§7) Figure 7 C29 is effective in ex vivo cerebellar organotypic model. […] (B) Spheroid growth was monitored by measuring DsRed fluorescence (PheraStar) over 14 days (C) Statistics were performed using Student t-test. * p < 0.05, n = 5. […] Daily (14 days) images, 30 in total, of spheroid growth in each well (JULISdays) were taken (D) Spheroid growth was monitored by measuring DsRed fluorescence (PheraStar) for 14 days (E) Scale bar = 250 µM. […]

Assay [5] concerns ONS-76 spheroids expressing DsRed on mouse cerebellar slices. Description: Ex vivo cerebellar organotypic model. To be noted: 5 µM C29 daily for five days, after fourteen days.
Excerpt: as §6, §7

For `O=C(Nc1cccc(Cl)c1)Nc1nc2ccc([N+](=O)[O-])cc2s1` [C29, 1-(3-chlorophenyl)-3-(6-nitrobenzo[d]thiazol-2-yl) urea], the AKT phosphorylation entry in assay [1] was “inhibited”. The ERK phosphorylation entry in assay [1] is given as “inhibited”; in assay [2], “inhibited ERK phosphorylation”; in assay [3] it was “inhibited ERK phosphorylation”. Moreover, the “Reduction of tumour expansion” value in assay [4] is 34.4 ± 8.8%; in assay [5], 28.9 ± 4.5%.
